Key:
[1] = test system: YopH secretion by Yersinia-strain pIB102; type: cell-based, Y. pseudotuberculosis; details: reduction of assay read-out (pNPP dephosphorylation, 405 nm) at 50 or 20 μM; Ca2+ depleted medium, 37° C.
[2] = test system: Yersinia strain pIB102EL (YopE gene transcriptionally fused to luxAB); type: cell-based, Y. pseudotuberculosis
[3] = test system: J774A cells infected with Y. pseudotuberculosis YPIII (pIB102); type: cell-based; details: survival of the infected J774A cells at 20 or 10 μM; MOI 10, 16 h of infection
[4] = test system: Enterotoxic Escherichia coli (ETEC); type: cell-based

Row | SMILES | YopH Assay [1] | Lux Assay [2] | Ex vivo Y. pseudotb. [3] | Ex vivo ETEC (Neg Control) [4]
1 | O=[N+]([O-])c1cc(CN2CCN(c3ccccc3)CC2)c(O)c2ncccc12 [Substance 1] | ++ (++ = <50% reduction of assay read-out at 20 μM) | ++ (key: + = <50% reduction of assay read-out at 50 μM; ++ = <50% reduction of assay read-out at 20 μM) | ++ (++ = >70% survival of the infected cells at 10 μM) | 
2 | CN(Cc1cc([N+](=O)[O-])c2cccnc2c1O)C1CCCCC1 [Substance 2] |  | + (key: + = <50% reduction of assay read-out at 50 μM; ++ = <50% reduction of assay read-out at 20 μM) |  | 
3 | COc1ccccc1N1CCN(Cc2cc([N+](=O)[O-])c3cccnc3c2O)CC1 [Substance 3] | + (+ = <50% reduction of assay read-out at 50 μM) | ++ (key: + = <50% reduction of assay read-out at 50 μM; ++ = <50% reduction of assay read-out at 20 μM) | + (+ = >70% survival of the infected cells at 20 μM) | 
4 | CC1CN(Cc2cc([N+](=O)[O-])c3cccnc3c2O)CC(C)O1 (stereo not drawn) [Substance 4] | + (+ = <50% reduction of assay read-out at 50 μM) | + (key: + = <50% reduction of assay read-out at 50 μM; ++ = <50% reduction of assay read-out at 20 μM) | + (+ = >70% survival of the infected cells at 20 μM) | + (key: + = >70% survival of the infected cells at 50 μM; ++ = >70% survival of the infected cells at 20 μM)
5 | O=[N+]([O-])c1cc(CN2CCC(c3ccccc3)C2)c(O)c2ncccc12 (stereo not drawn) [Substance 5] | ++ (++ = <50% reduction of assay read-out at 20 μM) | ++ (key: + = <50% reduction of assay read-out at 50 μM; ++ = <50% reduction of assay read-out at 20 μM) | + (+ = >70% survival of the infected cells at 20 μM) | ++ (key: + = >70% survival of the infected cells at 50 μM; ++ = >70% survival of the infected cells at 20 μM)
6 | Oc1c(CN2CCN(c3ccccn3)CC2)cc(Cl)c2cccnc12 [Substance 6] | + (+ = <50% reduction of assay read-out at 50 μM) | + (key: + = <50% reduction of assay read-out at 50 μM; ++ = <50% reduction of assay read-out at 20 μM) | + (+ = >70% survival of the infected cells at 20 μM) | + (key: + = >70% survival of the infected cells at 50 μM; ++ = >70% survival of the infected cells at 20 μM)
7 | Oc1c(CN2CCN(c3ccc(F)cc3)CC2)cc(Br)c2cccnc12 [Substance 7] | + (+ = <50% reduction of assay read-out at 50 μM) | + (key: + = <50% reduction of assay read-out at 50 μM; ++ = <50% reduction of assay read-out at 20 μM) | ++ (++ = >70% survival of the infected cells at 10 μM) | ++ (key: + = >70% survival of the infected cells at 50 μM; ++ = >70% survival of the infected cells at 20 μM)
8 | Oc1c(CN2CCN(c3ccc(F)cc3)CC2)cc(Cl)c2cccnc12 [Substance 8] | + (+ = <50% reduction of assay read-out at 50 μM) | + (key: + = <50% reduction of assay read-out at 50 μM; ++ = <50% reduction of assay read-out at 20 μM) | ++ (++ = >70% survival of the infected cells at 10 μM) | + (key: + = >70% survival of the infected cells at 50 μM; ++ = >70% survival of the infected cells at 20 μM)

From US20100099674A1 (priority 2007, published 2010)
